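Five compound concentrations were applied to cells in 96-well plates for 48 hours; endpoints were derived by simple linear interpolation of the resulting dose-response curve. At the GI50, growth is halved.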 Activity calls are given as the source filed them. Rule as the data show it: active = GI50 up to about 1.1 µM and inactive = higher. A value given as a limit tells only on which side of the number the result lay.

Among the test systems are SN12C; KM12; SF-295; SNB-19; SK-MEL-2; SK-MEL-5; A498; MDA-MB-231; NCI-H460; IGROV-1; NCI-H23; OVCAR-4; OVCAR-8; TK-10; HOP-62; A549; MCF7; U-251; OVCAR-3; COLO 205.
Assay in all cases: inhibition of tumour cell growth, NCI panel, 48 h

Turning to `CC1(C)CC2=NO[Se]3=C2C(=NO3)C1`, the GI50 in the experiment with SN12C was 4.43 µM (inactive); in the experiment on KM12, 2.64 µM (inactive); in the experiment with SF-295, 2.36 µM (inactive); with SNB-19 it was 4.08 µM (inactive); in the experiment on SK-MEL-2, 5.78 µM (inactive); in the experiment on SK-MEL-5 it was 1.81 µM (inactive). For the same molecule, the GI50 in the experiment on A498 was 4.3 µM (inactive); in the experiment on MDA-MB-231 it was 4.19 µM (inactive); with NCI-H460 it was 1.34 µM (inactive); with IGROV-1 it was 2.72 µM (inactive); with NCI-H23 it was 2.15 µM (inactive); in the experiment with OVCAR-4, 3.41 µM (inactive). Further, the GI50 in the experiment with OVCAR-8 is 2.38 µM (inactive); in the experiment with TK-10 it was 4.29 µM (inactive); with HOP-62 it was 2.99 µM (inactive); in the experiment with A549, 3.42 µM (inactive); with MCF7, 3.27 µM (inactive); in the experiment with U-251, 3.69 µM (inactive). Also, the figures for the GI50 in the experiment with OVCAR-3 and in the experiment with COLO 205 were 1.68 µM (inactive) and 2.07 µM (inactive), respectively.
`CCOC(=O)c1cc2nc3ccccc3c(=O)n2c2ccccc12`: the GI50 in the experiment on SN12C, with KM12, in the experiment on SF-295, in the experiment with SNB-19, in the experiment on SK-MEL-2 and in the experiment on SK-MEL-5 was > 10 µM (inactive) throughout. In addition, the GI50 in the experiment with A498, in the experiment with MDA-MB-231, in the experiment on NCI-H460, with IGROV-1, in the experiment on NCI-H23 and with OVCAR-4 was > 10 µM (inactive) in each case. In addition, the GI50 in the experiment with OVCAR-8, in the experiment on TK-10, in the experiment with HOP-62, in the experiment with A549, in the experiment on MCF7 and in the experiment on U-251 was > 10 µM (inactive) throughout. For the same molecule, the GI50 in the experiment with OVCAR-3 and in the experiment on COLO 205 was > 10 µM (inactive) throughout.
Turning to `COC(=O)CC1C(C)(C)C(=O)C2CC3=C4CC(=O)OC(c5ccoc5)C4(C)CCC3C1(C)C2=O` (stereo not given), the GI50 in the experiment with SN12C, with KM12, with SF-295, with SNB-19, in the experiment with SK-MEL-2 and in the experiment with SK-MEL-5 was > 100 µM (inactive) in each case. The GI50 in the experiment with A498, in the experiment on MDA-MB-231, in the experiment with NCI-H460, in the experiment with IGROV-1, with NCI-H23 and in the experiment with OVCAR-4 was > 100 µM (inactive) throughout. The GI50 with OVCAR-8, with TK-10, in the experiment with HOP-62, in the experiment on A549, in the experiment on MCF7 and with U-251 was > 100 µM (inactive) each time. Further, the GI50 in the experiment on OVCAR-3 and in the experiment with COLO 205 was > 100 µM (inactive) in each case.
For `CN1C(NN)=NS(=O)(=O)c2ccccc21`, the GI50 with SN12C, in the experiment on KM12, in the experiment on SF-295, in the experiment with SNB-19, with SK-MEL-2 and with SK-MEL-5 was > 100 µM (inactive) in each case. The GI50 with A498, with MDA-MB-231, with NCI-H460, in the experiment with IGROV-1, in the experiment with NCI-H23 and in the experiment on OVCAR-4 was > 100 µM (inactive) throughout. For the same molecule, the GI50 in the experiment on OVCAR-8, with TK-10, with HOP-62, in the experiment on A549, in the experiment on MCF7 and with U-251 was > 100 µM (inactive) each time. The GI50 in the experiment on OVCAR-3 and in the experiment on COLO 205 was > 100 µM (inactive) each time.
As to `C/C=C(\C)C(O)C(C)C(O)C/C=C(C)/C=C(\C)C/C(C)=C/C/C=C(\C)C(O)C(C)c1ccc(CCC)c(=O)o1` (stereo not given), the GI50 is 16.6 µM (inactive) with SN12C; 7.19 µM (inactive) in the experiment with KM12; 0.349 µM (active) with SF-295; 16.1 µM (inactive) in the experiment on SNB-19; 23.8 µM (inactive) with SK-MEL-2; 1.14 µM (inactive) in the experiment with SK-MEL-5. Besides, the GI50 in the experiment with A498 is 14.7 µM (inactive); in the experiment with MDA-MB-231 it was 13.2 µM (inactive); in the experiment on NCI-H460, 5.18 µM (inactive); in the experiment with IGROV-1, 14.6 µM (inactive); with NCI-H23, < 0.01 µM (active); in the experiment with OVCAR-4, 10 µM (inactive). Besides, the GI50 in the experiment on OVCAR-8 was 12.9 µM (inactive); in the experiment on TK-10, 17.5 µM (inactive); with HOP-62, 16.2 µM (inactive); with A549 it was 3.57 µM (inactive); in the experiment on MCF7 it was 4.25 µM (inactive); with U-251, 11.4 µM (inactive). Further, the GI50 in the experiment with OVCAR-3 was 12.1 µM (inactive); in the experiment with COLO 205, 3.78 µM (inactive).
With `COc1nc(NC2OC(COC(C)=O)C(OC(C)=O)C(OC(C)=O)C2OC(C)=O)c(/N=C/C=N/c2c(NC3OC(COC(C)=O)C(OC(C)=O)C(OC(C)=O)C3OC(C)=O)nc(OC)n(C)c2=O)c(=O)n1C` (stereo not given), the GI50 in the experiment with SN12C is > 100 µM (inactive); with KM12 it was > 100 µM (inactive); in the experiment with SF-295, 49.2 µM (inactive); in the experiment on SNB-19, 48.4 µM (inactive); in the experiment on SK-MEL-2, > 100 µM (inactive); in the experiment on SK-MEL-5, > 100 µM (inactive). Besides, the GI50 with A498, in the experiment on MDA-MB-231, in the experiment with NCI-H460, in the experiment with IGROV-1, in the experiment on NCI-H23 and with OVCAR-4 was > 100 µM (inactive) in each case. Besides, the GI50 was > 100 µM (inactive) with OVCAR-8; 56.4 µM (inactive) with TK-10; 28.1 µM (inactive) in the experiment with HOP-62; > 100 µM (inactive) in the experiment on A549; > 100 µM (inactive) with MCF7; 30.5 µM (inactive) in the experiment with U-251. Also, the GI50 in the experiment with OVCAR-3 and in the experiment on COLO 205 was > 100 µM (inactive) in each case.
As for `COc1ccc2c3c1O[C@H](c1ccc(O)cc1)[C@H]3[N+](C)(C)CC2`, the GI50 with SN12C was > 100 µM (inactive); in the experiment with KM12, > 100 µM (inactive); with SF-295, > 100 µM (inactive); with SNB-19 it was 49.2 µM (inactive); in the experiment with SK-MEL-2, > 100 µM (inactive); with SK-MEL-5, 86.3 µM (inactive). Besides, the GI50 is > 100 µM (inactive) in the experiment with A498; > 100 µM (inactive) in the experiment with MDA-MB-231; > 100 µM (inactive) with NCI-H460; > 100 µM (inactive) in the experiment on IGROV-1; 46.6 µM (inactive) with NCI-H23; 5.51 µM (inactive) with OVCAR-4. Also, the GI50 in the experiment on OVCAR-8, in the experiment with TK-10, with HOP-62, in the experiment with A549, with MCF7 and with U-251 was > 100 µM (inactive) each time. The GI50 is > 100 µM (inactive) with OVCAR-3 and 68.4 µM (inactive) in the experiment with COLO 205.
Consider `CC1=CCCC2C1(C)CCC(C)C2(C)Cc1cc(O)ccc1O` (stereo not given), for which the GI50 is 8.3 µM (inactive) in the experiment with SN12C; 5.94 µM (inactive) with KM12; 6.3 µM (inactive) in the experiment with SF-295; 5.68 µM (inactive) in the experiment with SNB-19; 9.06 µM (inactive) in the experiment on SK-MEL-2; 9.16 µM (inactive) with SK-MEL-5. Further, the GI50 in the experiment on A498 was 12.9 µM (inactive); with MDA-MB-231, 12.9 µM (inactive); in the experiment on NCI-H460, 5.69 µM (inactive); in the experiment with IGROV-1 it was 5.94 µM (inactive); in the experiment on NCI-H23, 4.44 µM (inactive); in the experiment on OVCAR-4 it was 10.8 µM (inactive). The GI50 in the experiment on OVCAR-8 is 4.54 µM (inactive); in the experiment on TK-10, 11.1 µM (inactive); in the experiment with HOP-62, 13.5 µM (inactive); in the experiment on A549, 5.62 µM (inactive); in the experiment on MCF7, 5.62 µM (inactive); in the experiment with U-251 it was 4.26 µM (inactive). In addition, the GI50 in the experiment with OVCAR-3 was 5.74 µM (inactive); with COLO 205, 14.8 µM (inactive).
As to `C[C@H](N)C(=O)N[C@@H]1[C@H]2C(=C(O)C[C@@H](O)[C@@H]2O)C(=O)O[C@]1(C)C(Cl)Cl` [BACTOBOLIN], the GI50 with SN12C is 0.164 µM (active); in the experiment with KM12, 0.172 µM (active); with SF-295, 0.18 µM (active); in the experiment on SNB-19, 0.167 µM (active); in the experiment on SK-MEL-2, 0.222 µM (active); with SK-MEL-5 it was 0.129 µM (active). For the same molecule, the GI50 is 0.329 µM (active) in the experiment with A498; 0.156 µM (active) in the experiment with MDA-MB-231; 0.111 µM (active) in the experiment on NCI-H460; 0.361 µM (active) in the experiment on IGROV-1; 0.183 µM (active) with NCI-H23; 0.133 µM (active) in the experiment with OVCAR-4. For the same molecule, the GI50 with OVCAR-8 was 0.167 µM (active); in the experiment on TK-10, 0.356 µM (active); in the experiment with HOP-62 it was 0.152 µM (active); with A549 it was 0.187 µM (active); in the experiment with MCF7 it was 0.146 µM (active); with U-251 it was 0.144 µM (active). Also, the GI50 was 0.34 µM (active) with OVCAR-3 and 0.105 µM (active) in the experiment with COLO 205.
As for `O=C1NC(N/N=C/c2ccccc2)=N/C1=C\c1ccco1`, the GI50 with SN12C was 35.6 µM (inactive); in the experiment with KM12 it was 47.6 µM (inactive); in the experiment with SF-295 it was 33.1 µM (inactive); with SNB-19, 36.5 µM (inactive); in the experiment with SK-MEL-2, 25.9 µM (inactive); with SK-MEL-5, 45.9 µM (inactive). In addition, the GI50 in the experiment on A498 is > 100 µM (inactive); in the experiment with MDA-MB-231 it was 65.2 µM (inactive); in the experiment with NCI-H460, 20.7 µM (inactive); in the experiment with IGROV-1, 16.9 µM (inactive); in the experiment with NCI-H23, 26.4 µM (inactive); in the experiment on OVCAR-4, 38.5 µM (inactive). The GI50 was 16.1 µM (inactive) with OVCAR-8; 31.5 µM (inactive) in the experiment on TK-10; 19.8 µM (inactive) in the experiment on HOP-62; 27.7 µM (inactive) in the experiment with A549; 40.2 µM (inactive) with MCF7; 24.8 µM (inactive) in the experiment on U-251. In addition, the GI50 in the experiment on OVCAR-3 was 33.8 µM (inactive); in the experiment on COLO 205 it was 57.4 µM (inactive).

The values are drawn from ChEMBL document CHEMBL1201862, “PubChem BioAssay data set” (2004).
